Test results: PubChem BioAssay (NCI)
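Assay format: 96-well plates, 48-hour exposure. TGI is the concentration that stops growth completely.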

Experiments:
Test in all cases: inhibition of tumour cell growth, NCI panel, 48 h
CAKI-1 renal = test system: CAKI-1 renal
CCRF-CEM leukemia = test system: CCRF-CEM leukemia
DLD-1 colon = test system: DLD-1 colon
DMS 114 small cell lung = test system: DMS 114 small cell lung
DMS 273 small cell lung = test system: DMS 273 small cell lung
KM20L2 colon = test system: KM20L2 colon
LXFL 529 NSCLC = test system: LXFL 529 NSCLC
M19-MEL melanoma = test system: M19-MEL melanoma
MOLT-4 leukemia = test system: MOLT-4 leukemia
NCI-H522 lung = test system: NCI-H522 lung
OVCAR-3 ovarian = test system: OVCAR-3 ovarian
OVCAR-4 ovarian = test system: OVCAR-4 ovarian
RXF-631 renal = test system: RXF-631 renal
SNB-75 CNS = test system: SNB-75 CNS
SNB-78 CNS = test system: SNB-78 CNS
ACHN renal = test system: ACHN renal
HOP-18 NSCLC = test system: HOP-18 NSCLC
XF 498 CNS = test system: XF 498 CNS

SMILES	TGI (CAKI-1 renal) [µM]	TGI (CCRF-CEM leukemia) [µM]	TGI (DLD-1 colon) [µM]	TGI (DMS 114 small cell lung) [µM]	TGI (DMS 273 small cell lung) [µM]	TGI (KM20L2 colon) [µM]	TGI (LXFL 529 NSCLC) [µM]	TGI (M19-MEL melanoma) [µM]	TGI (MOLT-4 leukemia) [µM]	TGI (NCI-H522 lung) [µM]	TGI (OVCAR-3 ovarian) [µM]	TGI (OVCAR-4 ovarian) [µM]	TGI (RXF-631 renal) [µM]	TGI (SNB-75 CNS) [µM]	TGI (SNB-78 CNS) [µM]	TGI (ACHN renal) [µM]	TGI (HOP-18 NSCLC) [µM]	TGI (XF 498 CNS) [µM]
CC1(C)OC(=O)C(C#N)=C1/C=C/c1coc2ccc(Cl)cc2c1=O	57.5	87	98	> 100	> 100	> 100	> 100	> 100	94.1	> 100	46.2	55	> 100	53.5	> 100	–	–	–
CC(=O)NC(CCCNC(=O)N(CCCl)N=O)C(=O)NCc1ccccc1 (centres undefined)	> 100	> 100	> 100	> 100	> 100	> 100	> 100	> 100	> 100	> 100	> 100	> 100	–	> 100	–	> 100	> 100	> 100
O=c1[nH]cc(COCCCO)c(=O)[nH]1	> 100	> 100	> 100	–	> 100	> 100	> 100	> 100	> 100	> 100	> 100	> 100	–	> 100	> 100	> 100	> 100	> 100
c1ccc2c(c1)C1CCCCCC21N1CCOCC1 (centres undefined)	> 100	> 100	> 100	> 100	> 100	> 100	> 100	> 100	> 100	> 100	> 100	> 100	–	> 100	> 100	> 100	–	–
COC(=O)c1onc(-c2c(OC)cc(OC)cc2OC)c1C(=O)OC	> 100	> 100	> 100	> 100	> 100	> 100	> 100	> 100	> 100	> 100	> 100	> 100	–	> 100	> 100	> 100	> 100	> 100
Cc1ccc(-c2nnc(-c3nn(-c4ccccc4)c4nc5ccccc5nc34)o2)cc1	26.9	64.3	> 100	51.1	65.1	> 100	35.7	> 100	> 100	48.7	28.7	8.79	–	8.3	> 100	35.2	65.2	25.4
COc1cccc(NC(=O)CSc2nnc(-c3ccc(NC(C)=O)cc3)o2)c1	> 100	> 100	> 100	> 100	> 100	> 100	> 100	> 100	> 100	> 100	> 100	> 100	–	> 100	> 100	> 100	> 100	–
COc1ccc2c(c1)C(=O)C1CC(=O)CCC21 (centres undefined)	> 100	> 100	> 100	> 100	> 100	> 100	> 100	> 100	> 100	> 100	> 100	> 100	> 100	> 100	> 100	> 100	> 100	–
Cc1[nH]c2ccccc2c1C(=O)CC1(O)C(=O)Nc2c(Cl)cc(Cl)cc21 (centres undefined)	98.3	47.9	> 100	44.9	> 100	–	30.8	24.6	55.1	32.9	44	21.8	> 100	> 100	> 100	53.5	85.6	32.8
Cc1ccc2c(C3Cc4ccccc4N3C(=O)/C=C\C(=O)O)c(C)[nH]c2c1 (centres undefined)	> 100	62.5	> 100	> 100	> 100	> 100	42.9	> 100	94.6	48.6	66.8	> 100	–	> 100	45.3	> 100	–	–
C/C=C1\CN2CCc3c([nH]c4ccccc34)C2CC1C(=O)OC (centres undefined)	> 322	> 322	> 322	–	> 322	> 322	> 322	–	> 322	> 322	> 322	–	–	–	–	> 322	–	> 322
CC(=O)C(CN(CC(C)C)CC(C)C)C(c1ccccc1)c1c(O)c2ccccc2oc1=O (centres undefined)	> 100	–	> 100	> 100	–	> 100	> 100	> 100	> 100	> 100	> 100	> 100	> 100	> 100	–	> 100	–	–
COc1cccc(OC)c1C(=O)OCc1ccccc1	> 100	> 100	> 100	> 100	–	> 100	> 100	> 100	> 100	> 100	> 100	> 100	–	> 100	–	> 100	–	> 100
